Measured values from US20250009780A1, “AGENTS ENCODING CLDN6 AND CD3 BINDING ELEMENTS FOR TREATING CLDN6-POSITIVE CANCERS” (BIONTECH SE, priority 2021, published 2025).
Where two headings read alike, the source gives them in different places.

Columns and labels:
[1] = In vitro metabolic stability, liver microsomes; assay type: in vitro ADME, mouse, rat, monkey, and human; details: 120 min, all species
Method: (§1) The in vitro metabolic stability of ALC-0366 (aminolipid) was evaluated in mouse, rat, monkey, and human liver microsomes, S9 fractions, and hepatocytes. ALC-0366 was stable over 120 min in liver microsomes (remaining ALC-0366 >89%) and S9 fractions (remaining ALC-0366 >88%) and over 240 min in hepatocytes (remaining ALC-0366 >94%) in all species and test systems.

[2] = In vitro metabolic stability, hepatocytes; assay type: in vitro ADME, mouse, rat, monkey, and human; details: 240 min, all species
Method: as §1

[3] = In vitro metabolic stability, S9 fractions; assay type: in vitro ADME, mouse, rat, monkey, and human; details: 120 min, all species
Method: as §1

[4] = Metabolism of ALC-0159 in vitro and ex vivo; assay type: in vitro ADME, mouse, rat, monkey and human; details: yields N,N-ditetradecylamine; across species
Excerpt: The metabolism of ALC-0159, was examined in vitro using blood, liver S9 fractions and hepatocytes, all from mouse, rat, monkey and human and ex vivo in the rat plasma, urine, feces, and liver from the PK study. […] This hydrolytic metabolism was observed across the species evaluated.

[5] = Rat IV PK study of lipid excipient ALC-0159; assay type: in vivo, Wistar Han rats; details: for half-life: Wistar Han, rat, plasma, iv, 1.96 mg ALC-0159/kg, 1.96 mg ALC-0159/kg single IV
Method: BNT142 contains the PEG lipid excipient ALC-0159 in the nanoparticle. […] ALC-0159 was then cleared from plasma with a terminal elimination ty, of 72.7 h. The estimated percent of lipid dose distributed to the liver was ˜20%.

CLDN6 = target: T1, CLDN6 (Homo sapiens, UniProt P56747); assay: Cell microarray off-target binding assay, CLDN6; details: fixed HEK293 cells overexpressing target
T1 construct: expressed in transfected cells
T1 sequence (P56747 1-220): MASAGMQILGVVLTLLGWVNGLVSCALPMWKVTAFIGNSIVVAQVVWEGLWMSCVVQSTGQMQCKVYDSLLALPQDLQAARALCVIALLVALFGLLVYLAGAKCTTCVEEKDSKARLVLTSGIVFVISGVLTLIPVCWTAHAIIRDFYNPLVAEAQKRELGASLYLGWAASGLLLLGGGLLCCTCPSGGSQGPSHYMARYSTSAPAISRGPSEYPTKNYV
Excerpt: (§2) The tribody was screened for binding against fixed human HEK293 cells, individually overexpressing 6,239 different full-length human plasma membrane proteins and cell surface-tethered human secreted proteins, including 371 heterodimers.

[6] = test system: human pro-inflammatory cytokines in NSG/PBMC mice; assay: Human cytokine release in serum of NSG/PBMC mice; assay type: in vivo, mouse; details: 100 μg reference protein; 6-hour time point
Method: An additional non-tumor-bearing (w/o tumor) group administered with 1 μg BNT142 was included. (A) Concentrations of human cytokines (IFN-γ, IL-6, IL-2, IL-10, TNF-α and IL-1β) in mouse serum as determined by multiplex ELISA at the 6- (n=8) and 72-hour (n=4) time points. Data was normalized to saline-administered animals of the respective time points. Horizontal lines indicate medians. Unpaired and paired samples were compared using the Mann-Whitney U test or Wilcoxon signed-rank test, respectively. […] Horizontal lines indicate means.
The human pro-inflammatory cytokines IFN-γ, IL-1β, IL-2, IL-6, IL-10 and TNF-α were measured in serum samples of OV-90 human xenograft tumor-bearing NSG/PBMC mice obtained after 6 and 72 h of the third BNT142 administration (see above). An additional group of tumor-free NSG/PBMC mice was treated with 1 μg BNT142. […] Data were normalized to the values obtained with the saline control group at the respective time points.

[7] = test system: CLDN6-positive human ovarian carcinoma (OV-90) xenograft; assay: OV-90 xenograft model in PBMC-humanized NSG mice; assay type: in vivo, mouse
Method: NSG mice bearing advanced SC tumor xenografts of OV-90 cells (mean tumor volume at treatment start=100 mm^3) were engrafted with human PBMCs as effector cells by IP injection. Tumor volume was measured twice per week with a digital caliper. […] (A) Treatment schedule. (B) Tumor volume of individual mice at designated time points. (C) Overview of the median tumor volume per group, each comprising 13 to 14 mice at the start of the study and a minimum of five mice at the last data points. The vertical dotted lines represent the time points of IV administration of test/control items. Four mice (five mice from the 0.1 μg BNT142 group) from all groups were euthanized on Day 38 to obtain samples for ex vivo assays. (D) Number of CD3-positive cells per mm^2 of xenograft tissue as determined by immunohistochemical (IHC) staining using an anti-human CD3 antibody. […] Horizontal lines represent the mean (n=4 to 5). (E) Percentage of CLDN6-positive cells in tumor xenografts of mice from the respective test and control groups as determined by IHC staining using an anti-human CLDN6 antibody. Tumor xenografts were dissected at different time points over the course of the study. Horizontal lines represent the mean (n=8 to 10). […] Reddish-brown staining (dark in the black and white figure) indicates a positive IHC signal while the bluish-purple areas indicate an absence of positive staining (negative IHC signal).
To determine the anti-tumor efficacy of BNT142 in vivo, a CLDN6-positive human ovarian carcinoma (OV-90) xenograft mouse model was used. Briefly, immunodeficient male and female NOD.Cg-Prkd^scid IL2rg^tm1Wjl/SzJ (NSG) mice were subcutaneously (SC) inoculated with human OV-90 ovarian carcinoma cells. Mice with established tumors (mean size ≥30 mm^3) were engrafted intraperitoneally (IP) with human PBMCs from a healthy donor (resulting mouse model annotated as NSG/PBMC). Seven days later, a treatment regimen comprising five weekly single IV bolus injections of BNT142 or control items was initiated. BNT142 was administered at doses of 0.1 or 1 μg (˜0.004 and 0.04 mg/kg) per mouse. […]

CLDN9 = target: T2, CLDN9 (Homo sapiens, UniProt O95484); assay: Cell microarray off-target binding assay, CLDN9; parameters: individually overexpressing 6,239 different full-length human plasma membrane proteins; expressed in transfected cells; host or cells: fixed human HEK293 cells; details: fixed HEK293 cells overexpressing target
T2 sequence (O95484 1-217): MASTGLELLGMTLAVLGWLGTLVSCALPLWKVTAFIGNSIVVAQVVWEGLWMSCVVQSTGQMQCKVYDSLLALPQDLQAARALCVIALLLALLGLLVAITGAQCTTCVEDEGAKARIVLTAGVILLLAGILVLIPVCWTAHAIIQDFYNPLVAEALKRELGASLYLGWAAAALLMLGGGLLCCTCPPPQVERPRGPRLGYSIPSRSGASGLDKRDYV
Excerpt: as §2

[8] = test system: 6,239 full-length human plasma membrane proteins and cell surface-tethered human secreted proteins; assay: Cell microarray off-target binding assay, remaining panel; details: fixed HEK293 cells
Excerpt: as §2

human PBMCs = assay: In vitro human cytokine release (multiplex ELISA on T-cell activation assay supernatants); assay type: cell-based; details: positive control
Method: Cytokine concentration values for each donor (means of technical triplicates) are shown. Filled symbols represent values with target cells while open symbols represent values without target cells.
Cell culture supernatants obtained from the T-cell activation assay were analyzed to investigate the RiboMab02.1-dependent induction of on- and off-target cytokine release. The levels of human pro-inflammatory cytokines IFN-γ, IL-1β, IL-2, IL-6, IL-10 and TNF-α were measured using a customized multiplex ELISA kit.

human PBMCs (T cells) [9] = assay: T-cell proliferation assay (CFSE-labeled PBMCs, flow cytometry); assay type: cell-based; details: presence as well as absence of target cells
Excerpt: CFSE-labeled human PBMCs from three healthy donors were co-cultured with CLDN6-positive PA-1 and OV-90 target cells or with CLDN6-negative but control TAA-positive NUGC-4 as well as target-negative MDA-MB-231 control cells in a 12-well culture plate format. An effector-to-target-cell ratio of 10:1 was applied. In addition, PBMCs without (−) target cells were included separately. […] OKT3 antibody (anti-human CD3; black bars) served as positive control for target-independent CD3-driven T-cell proliferation. After 72 h of incubation, the percentages of proliferating T cells were analyzed by flow cytometry.
HEK-293T-17 producer cells were transfected with BNT142 or a control RiboMab-encoding RNA. Supernatants containing RiboMab02.1 or the control RiboMab (specific for an irrelevant TAA) were used as test items. Two concentrations (100 or 1 ng/mL) of RiboMab-containing supernatant were added to co-cultures of carboxyfluorescein succinimidyl ester (CFSE)-labeled human PBMCs and target-positive or -negative cells. PA-1 or OV-90 served as CLDN6-positive and MDA-MB-231 as target-negative cells. CLDN6-negative NUGC-4 cells (expressing the irrelevant TAA) as well as PBMCs in the absence of any target cells were included as further specificity controls. PBMCs from three healthy donors were compared in this assay. After 72 h of incubation, T cells were analyzed by flow cytometry to determine target-dependent proliferation.

human PBMCs (T cells) [10] = assay: T-cell activation assay (CD69/CD25, flow cytometry); assay type: cell-based; details: with and without target cells (data not shown)
Method: Human PBMCs from three healthy donors (effector cells) were cultured in the presence and absence of CLDN6-positive PA-1 cells (target cells) at a 10:1 effector-to-target-cell ratio. RiboMab02.1-containing mouse serum was serially-diluted (10-fold, 10-point; range: 4.0×10^−6 to 4,000 ng/mL) prior to use in the assay. After 48 h of co-incubation, cells were stained with anti-CD5, anti-CD69 and anti-CD25 antibodies for flow cytometric analysis of T cells. Shown here is the total T-cell activation normalized to samples incubated with mock serum from Luc_RNA-LNP-treated mice. Percentages of activated T cells are shown for each individual donor (left) and for all three donors as mean (right). Filled symbols represent values with and black, open symbols without target cells.
RiboMab02.1-containing as well as mock serum samples were obtained from mice administered either with BNT142 or luciferase encoding RNA-LNP (Luc_RNA-LNP; mock). Human PBMCs from three healthy donors were used as effector cells. Serum samples were serially-diluted (10-fold, 10-point), starting at 4,000 ng/mL, and added to PBMCs cultured alone or together with CLDN6-positive PA-1 target cells at an effector-to-target-cell ratio of 10:1. After 48 h of incubation, T cells were analyzed by flow cytometry for surface expression of the early and late activation markers CD69 and CD25, respectively. […] OKT3 positive control led to >50% T-cell activation with and without target cells (data not shown). Upregulation of CD69 on T cells was higher than that of CD25; CD25-positive cells were almost exclusively CD69 double-positive, pointing to an early activation state (data not shown).

## CCCCCCC(CCCC)C(=O)OCCCCCCCCCN(CCCO)CCCCCCCCCOC(=O)C(CCCC)CCCCCC (centres unmarked) [ALC-0366, ((3-Hydroxypropyl)azanediyl)bis(nonane-9,1-diyl) bis(2-butyloctanoate)]
[1]
  remaining ALC-0366: > 89%
[2]
  remaining ALC-0366: > 94%
[3]
  remaining ALC-0366: > 88%

## CCCCCCCCCCCCCCN(CCCCCCCCCCCCCC)C(=O)COCCOCCOCCOCCOCCOCCOCCOCCOCCOCCOCCOCCOCCOCCOCCOCCOCCOCCOCCOCCOCCOCCOCCOCCOCCOCCOCCOCCOCCOCCOCCOCCOCCOCCOCCOCCOCCOCCOCCOCCOCCOCCOCCOCCOCCOC [ALC-0159, 2-[(Polyethylene glycol)-2000]-N,N-ditetradecylacetamide]
[4]
  metabolism: metabolized relatively slowly by amide bond hydrolysis
[5]; IV administration of RNA-LNP
  excretion in urine: no detectable excretion
  percentage of dose excreted unchanged in feces: ~50%
[5]; read-out: initial plasma half-life (converted)
  half-life: 1.72 h
[5]; read-out: terminal elimination half-life in plasma (converted)
  half-life: 72.7 h
[5]; during 2 wk study
  drop of plasma concentration: approximately 8,000 fold
[5]; single IV
  estimated percent of lipid dose distributed to the liver: ~20%

## reference protein: recombinant purified CD3×(CLDN6)2 tribody reference protein, sequence-identical to RiboMab02.1
CLDN6
  interaction with CLDN6: specific interaction
[6]
  human cytokine elevation in serum: transient but significant elevation of all six cytokines
[7]; 100 μg reference protein IV once weekly x5
  start of tumor volume shrinkage: after the third treatment
[7]; 100 μg reference protein, 72 h after third injection
  TIL per mm^2 tumor tissue (average): 1,542 per mm^2
[7]; treated groups in contrast to negative control groups
  tumor reduction: significant tumor reduction
CLDN9
  interaction with CLDN9: weak off-target interaction
[8]
  other binding: No other binding was observed

## OKT3: human CD3-specific antibody used as positive control for T-cell activation [reference compound]
Human PBMCs
  cytokine release: induced cytokine release in the presence as well as absence of target cells
Human PBMCs (T cells) [9]
  T-cell activation (positive control in proliferation assay): strong activation
Human PBMCs (T cells) [10]
  T-cell activation: > 50%
